Results published in patent publication US8003660B2, “Modulators of muscarinic receptors” (Vertex Pharmaceuticals Incorporated, priority 2006, dated 2011).

Experiments:
Format in all cases: cell-based
M2 muscarinic receptor = biological target: T1, M2 muscarinic receptor (Homo sapiens, UniProt P08172); assay: Functional mobilization of intracellular calcium (FLIPR) in CHO cells expressing M2; conditions: for EC50: CHO cells expressing M2, FLIPR calcium; for Emax: CHO, 100% = maximum response obtained with the Carbachol control, read-out: M2 Efficacy
T1 construct: expressed in transfected cells; host or cells: CHO (M2-CHO)
T1 sequence (P08172 1-466): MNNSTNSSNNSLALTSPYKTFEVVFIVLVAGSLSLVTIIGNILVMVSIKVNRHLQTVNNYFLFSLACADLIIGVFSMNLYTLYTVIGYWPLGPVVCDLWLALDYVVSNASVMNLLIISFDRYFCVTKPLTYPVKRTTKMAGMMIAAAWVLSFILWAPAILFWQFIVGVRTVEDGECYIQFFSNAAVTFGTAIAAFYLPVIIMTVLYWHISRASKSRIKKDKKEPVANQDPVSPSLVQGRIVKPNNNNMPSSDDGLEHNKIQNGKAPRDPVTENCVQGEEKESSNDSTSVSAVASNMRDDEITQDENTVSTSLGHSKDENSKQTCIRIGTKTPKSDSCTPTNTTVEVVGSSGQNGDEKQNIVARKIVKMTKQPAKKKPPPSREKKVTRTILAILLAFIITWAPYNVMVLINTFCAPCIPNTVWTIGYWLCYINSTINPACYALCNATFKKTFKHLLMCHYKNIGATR
Method in brief: (§1)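 Recombinant CHO cells loaded with Fluo-3 AM or Calcium 3 dye in pH 7.4 buffer containing 1 mM probenecid, with 0.5% final DMSO. For agonism, compound is added directly. For inhibition, it is preincubated 15 min, or co-applied, before carbachol at EC80. FLIPR fluorescence (ex 488, em 540 nm) is recorded for 60 s.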

M4 muscarinic receptor = biological target: T2, M4 muscarinic receptor (Homo sapiens, UniProt P08173); assay: Functional mobilization of intracellular calcium (FLIPR) in CHO cells expressing M4; conditions: for EC50: CHO cells expressing M4, FLIPR calcium; for Emax: CHO, 100% = maximum response obtained with the Carbachol control, read-out: M4 Efficacy
T2 construct: expressed in transfected cells; host or cells: CHO (M4-CHO)
T2 sequence (P08173 1-479): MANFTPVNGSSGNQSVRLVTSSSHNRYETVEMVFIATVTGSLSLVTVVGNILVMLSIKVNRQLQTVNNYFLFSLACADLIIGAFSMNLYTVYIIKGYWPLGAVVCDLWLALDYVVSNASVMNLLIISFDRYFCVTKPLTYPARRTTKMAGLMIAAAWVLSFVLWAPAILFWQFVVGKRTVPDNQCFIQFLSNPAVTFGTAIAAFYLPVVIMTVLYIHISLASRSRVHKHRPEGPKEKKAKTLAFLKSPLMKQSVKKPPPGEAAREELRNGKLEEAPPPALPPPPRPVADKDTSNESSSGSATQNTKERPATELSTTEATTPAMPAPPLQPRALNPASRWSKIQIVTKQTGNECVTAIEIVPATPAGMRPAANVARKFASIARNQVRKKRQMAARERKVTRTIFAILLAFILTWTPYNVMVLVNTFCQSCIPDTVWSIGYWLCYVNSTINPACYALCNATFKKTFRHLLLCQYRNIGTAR
Method in brief: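 Calcium flux is read on FLIPR over 60 sec at 488/540 nm in muscarinic-receptor CHO lines. Antagonist mode adds carbachol at EC80 after 15 min compound preincubation or with simultaneous co-application. Agonist mode adds compound alone. Cells carry Fluo-3 or Calcium 3 dye in probenecid-containing pH 7.4 buffer, 0.5% DMSO final.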

M3 muscarinic receptor = biological target: T3, M3 muscarinic receptor (Homo sapiens, UniProt P20309); assay: Functional mobilization of intracellular calcium (FLIPR) in CHO cells expressing M3; conditions: for EC50: CHO cells expressing M3, FLIPR calcium; for Emax: CHO, 100% = maximum response obtained with the Carbachol control, read-out: M3 Efficacy
T3 construct: expressed in transfected cells; host or cells: CHO (M3-CHO)
T3 sequence (P20309 whole entry): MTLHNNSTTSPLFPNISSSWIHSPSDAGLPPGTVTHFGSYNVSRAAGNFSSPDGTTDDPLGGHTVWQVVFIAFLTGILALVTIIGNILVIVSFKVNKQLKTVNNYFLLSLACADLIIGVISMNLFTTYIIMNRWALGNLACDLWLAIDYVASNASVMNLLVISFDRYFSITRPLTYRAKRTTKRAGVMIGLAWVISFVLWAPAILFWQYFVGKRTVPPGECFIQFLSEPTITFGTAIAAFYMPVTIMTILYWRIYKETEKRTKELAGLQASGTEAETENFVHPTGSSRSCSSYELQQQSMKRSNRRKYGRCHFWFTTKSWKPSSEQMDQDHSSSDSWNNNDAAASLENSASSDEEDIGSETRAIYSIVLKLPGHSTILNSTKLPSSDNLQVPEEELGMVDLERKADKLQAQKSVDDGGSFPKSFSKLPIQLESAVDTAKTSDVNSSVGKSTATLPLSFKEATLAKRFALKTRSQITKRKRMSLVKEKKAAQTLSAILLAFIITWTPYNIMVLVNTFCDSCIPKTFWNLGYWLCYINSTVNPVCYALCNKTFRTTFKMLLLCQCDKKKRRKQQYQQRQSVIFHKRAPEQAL
Method in brief: as §1

M1 muscarinic receptor = biological target: T4, M1 muscarinic receptor (Homo sapiens, UniProt P11229); assay: Functional mobilization of intracellular calcium (FLIPR) in CHO cells expressing M1; conditions: for EC50: CHO cells expressing M1, FLIPR calcium; for Emax: CHO, 100% = maximum response obtained with the Carbachol control, read-out: M1 Efficacy
T4 construct: expressed in transfected cells; host or cells: CHO (M1-CHO)
T4 sequence (P11229 1-460): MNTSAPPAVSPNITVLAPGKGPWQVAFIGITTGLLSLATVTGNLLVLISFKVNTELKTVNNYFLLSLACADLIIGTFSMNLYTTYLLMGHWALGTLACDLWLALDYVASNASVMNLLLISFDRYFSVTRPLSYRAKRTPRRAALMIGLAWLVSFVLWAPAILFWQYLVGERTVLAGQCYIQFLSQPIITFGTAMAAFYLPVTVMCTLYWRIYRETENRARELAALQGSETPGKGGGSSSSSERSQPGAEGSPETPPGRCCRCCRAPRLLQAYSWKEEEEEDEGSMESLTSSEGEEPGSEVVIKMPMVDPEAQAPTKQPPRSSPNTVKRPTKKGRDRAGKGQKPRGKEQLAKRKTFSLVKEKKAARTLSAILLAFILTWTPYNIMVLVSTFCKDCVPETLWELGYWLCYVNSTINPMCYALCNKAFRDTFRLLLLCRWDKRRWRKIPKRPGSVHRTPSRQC
Method in brief: as §1

CC(C)(C)CCN1CCC2(CC[C@H](NC(=O)Cc3cccnc3)c3ccc(F)cc32)CC1 [compound 79]
EC50 (M2 muscarinic receptor): < 2 µM | Emax (M2 muscarinic receptor): 25 to 100% | EC50 (M4 muscarinic receptor): < 2 µM | Emax (M4 muscarinic receptor): 25 to 100% | EC50 (M3 muscarinic receptor): > 5 µM | Emax (M3 muscarinic receptor): < 25% | EC50 (M1 muscarinic receptor): < 2 µM | Emax (M1 muscarinic receptor): 25 to 100%

CC(C)CCN1CCC2(CC[C@H](NS(C)(=O)=O)c3ccccc32)CC1 [compound 80]
EC50 (M2 muscarinic receptor): > 5 µM | Emax (M2 muscarinic receptor): < 25% | EC50 (M4 muscarinic receptor): < 2 µM | Emax (M4 muscarinic receptor): 25 to 100% | EC50 (M3 muscarinic receptor): > 5 µM | Emax (M3 muscarinic receptor): < 25% | EC50 (M1 muscarinic receptor): < 2 µM | Emax (M1 muscarinic receptor): 25 to 100%

CC(=O)N1CCC(C(=O)N[C@H]2CCC3(CCN(CCC(C)(C)C)CC3)c3cc(F)ccc32)CC1 [compound 81]
EC50 (M2 muscarinic receptor): > 5 µM | Emax (M2 muscarinic receptor): < 25% | EC50 (M4 muscarinic receptor): < 2 µM | Emax (M4 muscarinic receptor): 25 to 100% | EC50 (M3 muscarinic receptor): > 5 µM | Emax (M3 muscarinic receptor): < 25% | EC50 (M1 muscarinic receptor): 2 to 5 µM | Emax (M1 muscarinic receptor): 25 to 100%

CC(=O)N1CCCC[C@@H]1C(=O)N[C@H]1CCC2(CCN(CCC(C)(C)C)CC2)c2cc(F)ccc21 [compound 82]
EC50 (M2 muscarinic receptor): 2 to 5 µM | Emax (M2 muscarinic receptor): < 25% | EC50 (M4 muscarinic receptor): < 2 µM | Emax (M4 muscarinic receptor): 25 to 100% | EC50 (M3 muscarinic receptor): > 5 µM | Emax (M3 muscarinic receptor): < 25% | EC50 (M1 muscarinic receptor): < 2 µM | Emax (M1 muscarinic receptor): 25 to 100%

CC(=O)N1CCCC[C@H]1C(=O)N[C@H]1CCC2(CCN(CCC(C)(C)C)CC2)c2cc(F)ccc21 [compound 83]
EC50 (M2 muscarinic receptor): > 5 µM | Emax (M2 muscarinic receptor): < 25% | EC50 (M4 muscarinic receptor): < 2 µM | Emax (M4 muscarinic receptor): 25 to 100% | EC50 (M3 muscarinic receptor): > 5 µM | Emax (M3 muscarinic receptor): < 25% | EC50 (M1 muscarinic receptor): < 2 µM | Emax (M1 muscarinic receptor): 25 to 100%

CC(=O)N1CCC[C@H]1C(=O)N[C@@H]1CCC2(CCN(CCC(C)(C)C)CC2)c2ccccc21 [compound 84]
EC50 (M2 muscarinic receptor): < 2 µM | Emax (M2 muscarinic receptor): 25 to 100% | EC50 (M4 muscarinic receptor): < 2 µM | Emax (M4 muscarinic receptor): 25 to 100% | EC50 (M3 muscarinic receptor): > 5 µM | Emax (M3 muscarinic receptor): < 25% | EC50 (M1 muscarinic receptor): 2 to 5 µM | Emax (M1 muscarinic receptor): 25 to 100%

C[C@@H](O)CC(=O)N[C@H]1CCC2(CCN(CCC(C)(C)C)CC2)c2ccccc21 [compound 85]
EC50 (M2 muscarinic receptor): < 2 µM | Emax (M2 muscarinic receptor): 25 to 100% | EC50 (M4 muscarinic receptor): < 2 µM | Emax (M4 muscarinic receptor): 25 to 100% | EC50 (M3 muscarinic receptor): > 5 µM | Emax (M3 muscarinic receptor): < 25% | EC50 (M1 muscarinic receptor): < 2 µM | Emax (M1 muscarinic receptor): 25 to 100%

CC(=O)N(C(C)C)[C@H]1CCC2(CCN(CCC(C)(C)C)CC2)c2cc(F)ccc21 [compound 86]
EC50 (M2 muscarinic receptor): > 5 µM | Emax (M2 muscarinic receptor): < 25% | EC50 (M4 muscarinic receptor): < 2 µM | Emax (M4 muscarinic receptor): 25 to 100% | EC50 (M3 muscarinic receptor): > 5 µM | Emax (M3 muscarinic receptor): < 25% | EC50 (M1 muscarinic receptor): < 2 µM | Emax (M1 muscarinic receptor): 25 to 100%

CC(=O)NC(C(=O)N[C@@H]1CCC2(CCN(CCC(C)(C)C)CC2)c2ccccc21)C(C)C (stereo partly shown) [compound 87]
EC50 (M2 muscarinic receptor): > 5 µM | Emax (M2 muscarinic receptor): < 25% | EC50 (M4 muscarinic receptor): < 2 µM | Emax (M4 muscarinic receptor): 25 to 100% | EC50 (M3 muscarinic receptor): > 5 µM | Emax (M3 muscarinic receptor): < 25% | EC50 (M1 muscarinic receptor): > 5 µM | Emax (M1 muscarinic receptor): < 25%

CC(C)(C)CCN1CCC2(CC[C@H](NC(=O)CCOC(C)(C)C)c3ccccc32)CC1 [compound 88]
EC50 (M2 muscarinic receptor): < 2 µM | Emax (M2 muscarinic receptor): 25 to 100% | EC50 (M4 muscarinic receptor): < 2 µM | Emax (M4 muscarinic receptor): 25 to 100% | EC50 (M3 muscarinic receptor): > 5 µM | Emax (M3 muscarinic receptor): < 25% | EC50 (M1 muscarinic receptor): < 2 µM | Emax (M1 muscarinic receptor): 25 to 100%

CC(C)CCN1CCC2(CCCc3ccccc32)CC1 [compound 89]
EC50 (M2 muscarinic receptor): > 5 µM | Emax (M2 muscarinic receptor): < 25% | EC50 (M4 muscarinic receptor): < 2 µM | Emax (M4 muscarinic receptor): 25 to 100% | EC50 (M3 muscarinic receptor): > 5 µM | Emax (M3 muscarinic receptor): < 25% | EC50 (M1 muscarinic receptor): > 5 µM | Emax (M1 muscarinic receptor): 25 to 100%

CC(C)CCN1CCC2(CC[C@H](N3CCCC3=O)c3ccccc32)CC1 [compound 90]
EC50 (M2 muscarinic receptor): > 5 µM | Emax (M2 muscarinic receptor): < 25% | EC50 (M4 muscarinic receptor): 2 to 5 µM | Emax (M4 muscarinic receptor): 25 to 100% | EC50 (M3 muscarinic receptor): > 5 µM | Emax (M3 muscarinic receptor): < 25% | EC50 (M1 muscarinic receptor): 2 to 5 µM | Emax (M1 muscarinic receptor): 25 to 100%

CC(C)(C)CCN1CCC2(CC[C@H](N3CCCC3=O)c3ccc(F)cc32)CC1 [compound 91]
EC50 (M2 muscarinic receptor): < 2 µM | Emax (M2 muscarinic receptor): < 25% | EC50 (M4 muscarinic receptor): < 2 µM | Emax (M4 muscarinic receptor): 25 to 100% | EC50 (M3 muscarinic receptor): > 5 µM | Emax (M3 muscarinic receptor): < 25% | EC50 (M1 muscarinic receptor): < 2 µM | Emax (M1 muscarinic receptor): 25 to 100%

CC(=O)CCC(=O)N[C@H]1CCC2(CCN(CCC(C)(C)C)CC2)c2cc(F)ccc21 [compound 92]
EC50 (M2 muscarinic receptor): < 2 µM | Emax (M2 muscarinic receptor): 25 to 100% | EC50 (M4 muscarinic receptor): < 2 µM | Emax (M4 muscarinic receptor): 25 to 100% | EC50 (M3 muscarinic receptor): > 5 µM | Emax (M3 muscarinic receptor): < 25% | EC50 (M1 muscarinic receptor): < 2 µM | Emax (M1 muscarinic receptor): 25 to 100%

CC(C)(C)CCN1CCC2(CC[C@@H](NC(=O)CC3CCOCC3)c3ccc(F)cc32)CC1 [compound 93]
EC50 (M2 muscarinic receptor): > 5 µM | Emax (M2 muscarinic receptor): < 25% | EC50 (M4 muscarinic receptor): < 2 µM | Emax (M4 muscarinic receptor): 25 to 100% | EC50 (M3 muscarinic receptor): > 5 µM | Emax (M3 muscarinic receptor): < 25% | EC50 (M1 muscarinic receptor): 2 to 5 µM | Emax (M1 muscarinic receptor): 25 to 100%

CCCN1CCC2(CC[C@H](NC(C)=O)c3ccccc32)CC1 [compound 95]
EC50 (M2 muscarinic receptor): > 5 µM | Emax (M2 muscarinic receptor): < 25% | EC50 (M4 muscarinic receptor): > 5 µM | Emax (M4 muscarinic receptor): 25 to 100% | EC50 (M3 muscarinic receptor): > 5 µM | Emax (M3 muscarinic receptor): < 25% | EC50 (M1 muscarinic receptor): > 5 µM | Emax (M1 muscarinic receptor): 25 to 100%

CC(=O)NCCC(=O)N[C@H]1CCC2(CCN(CCC(C)(C)C)CC2)c2cc(F)ccc21 [compound 96]
EC50 (M2 muscarinic receptor): < 2 µM | Emax (M2 muscarinic receptor): 25 to 100% | EC50 (M4 muscarinic receptor): < 2 µM | Emax (M4 muscarinic receptor): 25 to 100% | EC50 (M3 muscarinic receptor): > 5 µM | Emax (M3 muscarinic receptor): < 25% | EC50 (M1 muscarinic receptor): < 2 µM | Emax (M1 muscarinic receptor): 25 to 100%
